For 17 molecules, GI50 results are on record in patent US20240228458A1, “PYRIMIDINE DERIVATIVE HAVING PROTEIN KINASE INHIBITORY ACTIVITY, AND THERAPEUTIC PHARMACEUTICAL COMPOSITION COMPRISING SAME” (THERAPEX CO., LTD., priority 2021, published 2024).

As a reminder, the GI50 is the concentration at which growth is held to half of that of the control.

Holding throughout (type): cell-based
For assay [1], the system named is Ba/F3 cells expressing EGFR-wt. Put plainly: Growth inhibition (GI50) of Ba/F3 cells expressing EGFR-wt, Celltiter glo. The note with it: Mus musculus, BaF3, 72 h. The method in brief: (§1)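 Ba/F3 cells carrying the given EGFR variant were seeded at 100,000 cells/ml and, 4 h later, treated with 10-point, 4-fold serial dilutions prepared from a 2 mM stock (0.5% DMSO final). After 72 h at 37 °C and 5% CO2, viable cells were quantified by CellTiter-Glo luminescence to derive GI50.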
In general terms: ATP-based viability assays read luminescence as a measure of living cells.

The test system of assay [2] is Ba/F3 cells expressing del19/T790M/C797S (EGFR-DTC). Put plainly: Growth inhibition (GI50) of Ba/F3 cells expressing del19/T790M/C797S (EGFR-DTC), Celltiter glo. The note with it: Mus musculus, BaF3, 72 h. The method in brief: as §1
Assay [3] has as its system Ba/F3 cells expressing L858R/T790M/C797S (EGFR-LTC). Put plainly: Growth inhibition (GI50) of Ba/F3 cells expressing L858R/T790M/C797S (EGFR-LTC), Celltiter glo. As to conditions: Mus musculus, BaF3, 72 h. The method in brief:
as §1

The test system of assay [4] is Ba/F3 cells expressing del19/T790M (EGFR-DT). Put plainly: Growth inhibition (GI50) of Ba/F3 cells expressing del19/T790M (EGFR-DT), Celltiter glo. The note with it: Mus musculus, BaF3, 72 h. The method in brief: as §1
For assay [5], the system named is Ba/F3 cells expressing L858R/T790M (EGFR-LT). Put plainly: Growth inhibition (GI50) of Ba/F3 cells expressing L858R/T790M (EGFR-LT), Celltiter glo. The note with it: Mus musculus, BaF3, 72 h. The method in brief:
as §1

The test system of assay [6] is parental Ba/F3 cell line. Put plainly: Growth inhibition (GI50) of the parental Ba/F3 cell line (not introduced with EGFR variants), Celltiter glo. The note with it: Mus musculus, BaF3, 72 h, parental Ba/F3 cells. The method in brief: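 Parental Ba/F3 cells (100,000 cells/ml) were treated with 10-point, 4-fold compound dilutions (0.5% DMSO; top stock 2 mM) for 72 h at 37 °C, 5% CO2. Viability was read by CellTiter-Glo; GI50 is the concentration (μM) giving 50% growth inhibition.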

On to `Cc1cc(Nc2ncc(Cl)c(Nc3cc4c(cc3N(C)S(C)(=O)=O)CCO4)n2)c(Cl)cc1N1CCC(N2CCN(C)CC2)CC1` [Example 263, N-(6-((5-chloro-2-((2-chloro-5-methyl-4-(4-(4-methylpiperazin-1-yl)piperidin-1-yl)phenyl)amino)pyrimidin-4-yl)amino)-2,3-dihydrobenzofuran-5-yl)-N-methylmethanesulfonamide], for which the GI50 is 500 to 2000 nM in assay [1]; 500 to 2000 nM in assay [2]; 100 to 500 nM in assay [3]; 100 to 500 nM in assay [4]; 100 to 500 nM in assay [5]; greater than 10000 nM in assay [6].
Turning to `COc1cc(N2CCC(N3CCCN(C)CC3)CC2)c(Cl)cc1Nc1ncc(Cl)c(Nc2cc3c(cc2N(C)S(C)(=O)=O)CCO3)n1` [Example 264, N-(6-((5-chloro-2-((5-chloro-2-methoxy-4-(4-(4-methyl-1,4-diazepan-1-yl)piperidin-1-yl)phenyl)amino)pyrimidin-4-yl)amino)-2,3-dihydrobenzofuran-5-yl)-N-methylmethanesulfonamide], the GI50 in assay [1] is 100 to 500 nM; in assay [2], 25 to 100 nM; in assay [3] it was 25 to 100 nM; in assay [4], 1 to 25 nM; in assay [5], 1 to 25 nM; in assay [6], 2000 to 10000 nM.
Consider `COc1cc(N2CCC(N3CCCN(C)CC3)CC2)c(C)cc1Nc1ncc(Cl)c(Nc2cc3c(cc2N(C)S(C)(=O)=O)CCO3)n1` [Example 265, N-(6-((5-chloro-2-((2-methoxy-5-methyl-4-(4-(4-methyl-1,4-diazepan-1-yl)piperidin-1-yl)phenyl)amino)pyrimidin-4-yl)amino)-2,3-dihydrobenzofuran-5-yl)-N-methylmethanesulfonamide], for which the GI50 is 100 to 500 nM in assay [1]; 25 to 100 nM in assay [2]; 25 to 100 nM in assay [3]; 25 to 100 nM in assay [4]; 25 to 100 nM in assay [5]; 500 to 2000 nM in assay [6].
Consider `COc1cc(N2CCC(N3CCN(C4CC4)CC3)CC2)c(C)cc1Nc1ncc(Cl)c(Nc2cc3c(cc2N(C)S(C)(=O)=O)CCO3)n1` [Example 266, N-(6-((5-chloro-2-((4-(4-(4-cyclopropylpiperazin-1-yl)piperidin-1-yl)-2-methoxy-5-methylphenyl)amino)pyrimidin-4-yl)amino)-2,3-dihydrobenzofuran-5-yl)-N-methylmethanesulfonamide], for which the GI50 in assay [1] was 2000 to 10000 nM; in assay [2], 500 to 2000 nM; in assay [3] it was 100 to 500 nM; in assay [4], 25 to 100 nM; in assay [5], 100 to 500 nM; in assay [6] it was 2000 to 10000 nM.
With `COc1cc(N2CCC(N3CCCC(N(C)C)C3)CC2)c(C)cc1Nc1ncc(Cl)c(Nc2cc3c(cc2N(C)S(C)(=O)=O)CCO3)n1` (stereo not drawn) [Example 267, N-(6-((5-chloro-2-((4-(3-(dimethylamino)-[1,4′-bipiperidin]-1′-yl)-2-methoxy-5-methylphenyl)amino)pyrimidin-4-yl)amino)-2,3-dihydrobenzofuran-5-yl)-N-methylmethanesulfonamide], the GI50 in assay [1] was 500 to 2000 nM; in assay [2], 100 to 500 nM; in assay [3], 25 to 100 nM; in assay [4], 25 to 100 nM; in assay [5] it was 25 to 100 nM; in assay [6], 500 to 2000 nM.
With `CN1CCN(C2CCN(c3cc(F)c(Nc4ncc(Cl)c(Nc5cc6c(cc5NS(C)(=O)=O)CCO6)n4)cc3F)CC2)CC1` [Example 268, N-(6-((5-chloro-2-((2,5-difluoro-4-(4-(4-methylpiperazin-1-yl)piperidin-1-yl)phenyl)amino)pyrimidin-4-yl)amino)-2,3-dihydrobenzofuran-5-yl)methanesulfonamide], the GI50 in assay [1] lay in the range of 500 to 2000 nM; in assay [2], 100 to 500 nM; in assay [3], 100 to 500 nM; in assay [4], 25 to 100 nM; in assay [5], 25 to 100 nM; in assay [6], 2000 to 10000 nM.
As to `COc1cc(N2CCC(N3CCN(C)CC3)CC2)c(Br)cc1Nc1ncc(Cl)c(Nc2cc3c(cc2NS(C)(=O)=O)CCO3)n1` [Example 270, N-(6-((2-((5-Bromo-2-methoxy-4-(4-(4-methylpiperazin-1-yl)piperidin-1-yl)phenyl)amino)-5-chloropyrimidin-4-yl)amino)-2,3-dihydrobenzofuran-5-yl)methanesulfonamide], the GI50 fell in the range of 500 to 2000 nM in assay [1]; 1 to 25 nM in assay [2]; 1 to 25 nM in assay [3]; 1 to 25 nM in assay [4]; 1 to 25 nM in assay [5]; 500 to 2000 nM in assay [6].
Regarding `COc1cc(N2CCC(N3CCN(C)CC3)CC2)c(Br)cc1Nc1ncc(Br)c(Nc2cc3c(cc2NS(C)(=O)=O)CCO3)n1` [Example 271, N-(6-((2-((5-bromo-2-methoxy-4-(4-(4-methylpiperazin-1-yl)piperidin-1-yl)phenyl)amino)-5-bromopyrimidin-4-yl)amino)-2,3-dihydrobenzofuran-5-yl)methanesulfonamide], the GI50 in assay [1] is 2000 to 10000 nM; in assay [2] it was 1 to 25 nM; in assay [3], 1 to 25 nM; in assay [4], 1 to 25 nM; in assay [5], 1 to 25 nM; in assay [6] it was 2000 to 10000 nM.
Regarding `COc1cc(N2CCC(N3CCN(C)CC3)CC2)c(C)cc1Nc1ncc(Cl)c(Nc2ccc3c(c2)N(C)CC3)n1` [Example 272], the 50% growth inhibitory concentration (GI50) in assay [1] lay within 2000 to 10000 nM; in assay [2] it was 500 to 2000 nM; in assay [3] it was 500 to 2000 nM; in assay [4] it was 500 to 2000 nM; in assay [5], 500 to 2000 nM; in assay [6] it was 2000 to 10000 nM.
For the molecule `COc1cc(N2CCC(N3CCN(C)CC3)CC2)c(Cl)cc1Nc1ncc(Cl)c(Nc2ccc3c(c2)N(C)CC3)n1` [Example 273], the GI50 lay within 25 to 100 nM in assay [1]; 500 to 2000 nM in assay [2]; 100 to 500 nM in assay [3]; 500 to 2000 nM in assay [4]; 100 to 500 nM in assay [5]; 500 to 2000 nM in assay [6].
Turning to `Cc1cc(Nc2ncc(Cl)c(Nc3ccc4c(c3)N(C)CC4)n2)c(Cl)cc1N1CCC(N2CCN(C)CC2)CC1` [Example 274], the GI50 in assay [1] was 25 to 100 nM; in assay [2], 2000 to 10000 nM; in assay [3], 500 to 2000 nM; in assay [4], 500 to 2000 nM; in assay [5], 500 to 2000 nM; in assay [6], 500 to 2000 nM.
As for `COc1cc(N2CCC(N3CCCN(C)CC3)CC2)c(C)cc1Nc1ncc(Cl)c(Nc2ccc3c(c2)N(C)CC3)n1` [Example 275], the GI50 in assay [1] lay in the range of 100 to 500 nM; in assay [2], 500 to 2000 nM; in assay [3] it was 500 to 2000 nM; in assay [4], 100 to 500 nM; in assay [5], 500 to 2000 nM; in assay [6] it was 500 to 2000 nM.
Regarding `COc1cc(N2CCC(N3CCN(C)CC3)CC2)c(C)cc1Nc1ncc(Cl)c(Nc2cc3c(cc2NS(C)(=O)=O)CCN3C)n1` [Example 276, N-(6-((5-chloro-2-((2-methoxy-5-methyl-4-(4-(4-methylpiperazin-1-yl)piperidin-1-yl)phenyl)amino)pyrimidin-4-yl)amino)-1-methylindolin-5-yl)methanesulfonamide], the GI50 in assay [1] was in the range of 500 to 2000 nM; in assay [2] it was 100 to 500 nM; in assay [3], 100 to 500 nM; in assay [4], 25 to 100 nM; in assay [5], 100 to 500 nM; in assay [6], 2000 to 10000 nM.
For the molecule `Cc1cc(Nc2ncc(Cl)c(Nc3ccc4c(c3)NCC4)n2)c(Cl)cc1N1CCC(N2CCN(C)CC2)CC1` [Example 277], the GI50 was greater than 10000 nM in assay [1]; greater than 10000 nM in assay [2]; greater than 10000 nM in assay [3]; 2000 to 10000 nM in assay [4]; 2000 to 10000 nM in assay [5]; 2000 to 10000 nM in assay [6].
With `COc1cc(N2CCC(N3CCN(C)CC3)CC2)c(Cl)cc1Nc1ncc(Cl)c(Nc2ccc3c(c2)NCC3)n1` [Example 278], the GI50 is greater than 10000 nM in assay [1]; 2000 to 10000 nM in assay [2]; greater than 10000 nM in assay [3]; greater than 10000 nM in assay [4]; 2000 to 10000 nM in assay [5]; 2000 to 10000 nM in assay [6].
On to `COc1cc(N2CCC(N3CCN(C)CC3)CC2)ccc1Nc1ncc(Cl)c(Nc2ccc3c(c2)NCC3)n1` [Example 279], for which the GI50 in assay [1] lay within 2000 to 10000 nM; in assay [2], 2000 to 10000 nM; in assay [3], 2000 to 10000 nM; in assay [4], 100 to 500 nM; in assay [5], 500 to 2000 nM; in assay [6], 2000 to 10000 nM.
Consider `COc1cc(N2CCC(N3CCCC(N(C)C)C3)CC2)c(Br)cc1Nc1ncc(Cl)c(Nc2cc3c(cc2NS(C)(=O)=O)CCO3)n1` (stereo not drawn) [Example 280, N-(6-((2-((5-bromo-4-(3-(dimethylamino)-[1,4′-bipiperidin]-1′-yl)-2-methoxyphenyl)amino)-5-chloropyrimidin-4-yl)amino)-2,3-dihydrobenzofuran-5-yl)methanesulfonamide], for which the GI50 in assay [1] fell in the range of 25 to 100 nM; in assay [2] it was 100 to 500 nM; in assay [3] it was 1 to 25 nM; in assay [4], 1 to 25 nM; in assay [5] it was 1 to 25 nM; in assay [6], 2000 to 10000 nM.
